The record followed here is patent publication US9067924B2, “1,4 thiazepines/sulfones as BACE1 and/or BACE2 inhibitors” (HOFFMANN-LA ROCHE INC., priority 2011, dated 2015).

The target of one assay is BACE1 (Homo sapiens (Human), UniProt P56817). The assay can be described thus: Cellular Aβ-lowering assay. Format: cell-based. The note with it: HEK293 cells expressing human APP695, Aβ40 in supernatant by ELISA. As to the method:
Cellular Aβ-Lowering Assay:
Human HEK293 cells which are stably transfected with a vector expressing a cDNA of the human APP wt gene (APP695) were used to assess the potency of the compounds in a cellular assay. The cells were seeded in 96-well microtiter plates in cell culture medium (Iscove, plus 10% (v/v) fetal bovine serum, glutamine, penicillin/streptomycin) to about 80% confluence and the compounds were added at a 10× concentration in 1/10 volume of medium without FCS containing 8% DMSO (final concentration of DMSO was kept at 0.8% v/v). After 18-20 hrs incubation at 37° C. and 5% CO2 in a humidified incubator the culture supernatant was harvested for the determination of Aβ40 concentrations. 96 well ELISA plates (e.g., Nunc MaxiSorb) were coated with monoclonal antibody which specifically recognize the C-terminal end of Aβ40 (Brockhaus et al., NeuroReport 9, 1481-1486; 1998). After blocking of non-specific binding sites with e.g. 1% BSA and washing, the culture supernatants were added in suitable dilutions together with a horseradish peroxidase-coupled Aβ detection antibody (e.g., antibody 4G8, Senetek, Maryland Heights, Mo.) and incubated for 5 to 7 hrs. Subsequently the wells of the microtiter plate were washed extensively with Tris-buffered saline containing 0.05% Tween 20 and the assay was developed with tetramethylbenzidine/H2O2 in citric acid buffer. After stopping the reaction with one volume 1 N H2SO4 the reaction was measured in an ELISA reader at 450 nm wavelength. The concentrations of Aβ in the culture supernatants were calculated from a standard curve obtained with known amounts of pure Aβ peptide.
In general terms: In an ELISA, binding on a coated surface is turned into a signal by an enzyme label.

In another assay the target is BACE2 (Rattus norvegicus (Rat), UniProt Q6IE75). The assay can be described thus: Assay for BACE inhibition by measuring cellular TMEM27 cleavage. In kind it is cell-based. The note with it: INS-TMEM27 (INS1e-derived) cells, shed hTMEM27 by ELISA. From the text: Assay for BACE Inhibition by Measuring Cellular TMEM27 Cleavage:
The assay uses the principle of inhibition of human TMEM27 cleavage by endogenous cellular BACE2 in the Ins1e rat cell line and shedding from the cell surface into the culture medium, followed by detection in an ELISA assay Inhibition of BACE2 prevents the cleavage and shedding in a dose-dependent manner.
The stable cell line “INS-TMEM27” represents an INS1e-derived cell line with inducible expression (using the TetOn system) of full-length hTMEM27 in a doxycycline-dependent manner. The cells are cultured throughout the experiment in RPMI1640+Glutamax (Invitrogen) Penicillin/Streptomycin, 10% Fetal bovine serum, […], […], 100 micrograms/ml G418 and 100 microgram/ml hygromycin and are grown inadherent culture at 37° C. in a standard CO2 cell culture incubator.
INS-TMEM27 cells are seeded in 96-well plates. After 2 days in culture, BACE2 inhibitor is added in a range of concentrations as required by the assay and after a further two hours, doxycycline is added to a final concentration of 500 ng/ml. The cells are incubated for a further 46 hours and the supernatant harvested for detection of shed TMEM27.
An ELISA assay (using a pair of mouse anti-human-TMEM27 antibodies, raised against the extracellular domain of TMEM27) is used for detection of TMEM27 in the culture medium. An EC50 for BACE2 inhibition is calculated using the ELISA readout for each inhibitor concentration with standard curve-fitting software such as XLFit for the Excel spreadsheet program.

Chain of BACE2 (Q6IE75 63-514): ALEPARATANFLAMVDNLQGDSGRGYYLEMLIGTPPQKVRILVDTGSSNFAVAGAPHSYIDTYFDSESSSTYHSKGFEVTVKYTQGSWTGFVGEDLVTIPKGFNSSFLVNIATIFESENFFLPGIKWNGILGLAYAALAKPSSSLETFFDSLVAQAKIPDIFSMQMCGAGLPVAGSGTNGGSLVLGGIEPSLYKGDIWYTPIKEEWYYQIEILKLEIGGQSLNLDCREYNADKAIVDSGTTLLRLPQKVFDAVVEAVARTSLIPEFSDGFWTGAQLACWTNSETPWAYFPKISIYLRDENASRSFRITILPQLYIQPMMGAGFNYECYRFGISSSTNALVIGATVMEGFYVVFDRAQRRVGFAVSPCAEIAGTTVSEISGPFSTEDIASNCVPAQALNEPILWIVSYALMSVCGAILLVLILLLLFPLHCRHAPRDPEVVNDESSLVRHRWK
Chain of BACE1 (P56817 46-501): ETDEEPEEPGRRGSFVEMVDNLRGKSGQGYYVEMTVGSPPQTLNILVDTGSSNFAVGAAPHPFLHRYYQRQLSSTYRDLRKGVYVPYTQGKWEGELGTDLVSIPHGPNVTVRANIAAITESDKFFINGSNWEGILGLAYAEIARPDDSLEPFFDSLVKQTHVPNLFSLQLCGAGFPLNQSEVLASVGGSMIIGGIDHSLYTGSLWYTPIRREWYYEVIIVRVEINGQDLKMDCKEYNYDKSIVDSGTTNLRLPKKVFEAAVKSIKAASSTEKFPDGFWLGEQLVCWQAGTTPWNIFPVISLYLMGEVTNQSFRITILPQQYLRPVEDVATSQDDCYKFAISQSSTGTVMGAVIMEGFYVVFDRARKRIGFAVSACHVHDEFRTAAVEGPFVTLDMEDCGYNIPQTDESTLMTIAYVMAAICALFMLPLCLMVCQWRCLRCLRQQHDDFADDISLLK

As a reminder, the IC50 is the point on the concentration scale where inhibition reaches its midpoint. The low end stands for inhibition by little substance, the high end for a need for much substance. On to `CC1SCC[C@@](C)(c2cc(NC(=O)c3ccc(Cl)cn3)ccc2F)N=C1N` (stereo in doubt) [Example 6, 5-Chloro-pyridine-2-carboxylic acid [3-((S)-3-amino-2,5-dimethyl-2,5,6,7-tetrahydro-[1,4]thiazepin-5-yl)-4-fluoro-phenyl]-amide], for which the concentration for half-maximal inhibition (IC50) was 140 nM at BACE1 and 9 nM at BACE2. With `C[C@]1(c2cc(NC(=O)c3ccc(C#N)cn3)ccc2F)N=C(N)CS(=O)(=O)[C@H]2COC[C@@H]21` (relative stereo) [Example 14, 5-Cyano-pyridine-2-carboxylic acid [3-((3aR,8S,8aS)-rel-6-amino-8-methyl-4,4-dioxo-3,3a,4,5,8,8a-hexahydro-1H-2-oxa-4λ^6-thia-7-aza-azulen-8-yl)-4-fluoro-phenyl]-amide], the IC50 against BACE1 came out at 78 nM. The same measure, in the same setting: next, `CC1(C)C(N)=N[C@](C)(c2cc(NC(=O)c3[nH]ncc3Cl)ccc2F)CCS1(=O)=O` [Example 11, 4-Chloro-2H-pyrazole-3-carboxylic acid [3-((S)-3-amino-2,2,5-trimethyl-1,1-dioxo-2,5,6,7-tetrahydro-1H-1λ^6-[1,4]thiazepin-5-yl)-4-fluoro-phenyl]-amide]: 2290 nM. With `CC1SCC[C@@](C)(c2cc(NC(=O)c3ccc(F)cn3)ccc2F)N=C1N` (stereo in doubt) [Example 5, 5-Fluoro-pyridine-2-carboxylic acid [3-((S)-3-amino-2,5-dimethyl-2,5,6,7-tetrahydro-[1,4]thiazepin-5-yl)-4-fluoro-phenyl]-amide], the half-maximal inhibitory concentration (IC50) against BACE1 came out at 170 nM; at BACE2, 21 nM. On the same counts, the results for `C[C@@]1(c2cc(NC(=O)c3ccc(F)cn3)ccc2F)CCSCC(N)=N1` [Example 2, 5-Fluoro-pyridine-2-carboxylic acid [3-((S)-3-amino-5-methyl-2,5,6,7-tetrahydro-[1,4]thiazepin-5-yl)-4-fluoro-phenyl]-amide] are 16 nM and 79 nM. With `C[C@@]1(c2cc(NC(=O)c3ccc(F)cn3)ccc2F)CCS(=O)(=O)CC(N)=N1` [Example 4, 5-Fluoro-pyridine-2-carboxylic acid [3-((S)-3-amino-5-methyl-1,1-dioxo-2,5,6,7-tetrahydro-1H-1λ^6-[1,4]thiazepin-5-yl)-4-fluoro-phenyl]amide], the IC50 at BACE1 came to 20 nM; against BACE2, 4 nM.

Turning to `CC1C(N)=N[C@](C)(c2cc(NC(=O)c3ccc(F)cn3)ccc2F)CCS1(=O)=O` (stereo in doubt) [Example 7, 5-Fluoro-pyridine-2-carboxylic acid [3-((S)-3-amino-2,5-dimethyl-1,1-dioxo-2,5,6,7-tetrahydro-1H-1λ^6-[1,4]thiazepin-5-yl)-4-fluoro-phenyl]-amide], the values for the concentration for half-maximal inhibition (IC50) against BACE1 and against BACE2 were 4 nM and 2 nM, respectively. The matching figures for `CC1C(N)=N[C@](C)(c2cc(NC(=O)c3ccc(Cl)cn3)ccc2F)CCS1(=O)=O` (stereo partly drawn) [Example 8, 5-Chloro-pyridine-2-carboxylic acid [3-((S)-3-amino-2,5-dimethyl-1,1-dioxo-2,5,6,7-tetrahydro-4H-1λ^6-[1,4]thiazepin-5-yl)-4-fluoro-phenyl]-amide]: 30 nM and 16 nM. On the same counts, the results for `CC1C(N)=N[C@](C)(c2cc(NC(=O)c3[nH]ncc3Cl)ccc2F)CCS1(=O)=O` (stereo in doubt) [Example 9, 4-Chloro-2H-pyrazole-3-carboxylic acid [3-((S)-3-amino-2,5-dimethyl-1,1-dioxo-2,5,6,7-tetrahydro-1H-1λ^6-[1,4]thiazepin-5-yl)-4-fluoro-phenyl]-amide] are 300 nM and 858 nM. `CC1(C)C(N)=N[C@](C)(c2cc(NC(=O)c3ccc(C#N)cn3)ccc2F)CCS1(=O)=O` [Example 12, 5-Cyano-pyridine-2-carboxylic acid [3-((S)-3-amino-2,2,5-trimethyl-1,1-dioxo-2,5,6,7-tetrahydro-1H-1λ^6-[1,4]thiazepin-5-yl)-4-fluoro-phenyl]-amide] yielded an IC50 against BACE1 of 53 nM. As for `C[C@@]1(c2cc(NC(=O)c3ccc(Cl)cn3)ccc2F)CCS(=O)(=O)CC(N)=N1` [Example 3, 5-Chloro-pyridine-2-carboxylic acid [3-((S)-3-amino-5-methyl-1,1-dioxo-2,5,6,7-tetrahydro-1H-1λ^6-[1,4]thiazepin-5-yl)-4-fluoro-phenyl]-amide], the IC50 at BACE1 turned out to be 3 nM; against BACE2 it was 5 nM. As to `N#Cc1ccc(C(=O)Nc2ccc(F)c([C@]3(C(F)F)CCS(=O)(=O)CC(N)=N3)c2)nc1` [Example 13, 5-Cyano-pyridine-2-carboxylic acid [3-((S)-3-amino-5-difluoromethyl-1,1-dioxo-2,5,6,7-tetrahydro-1H-1λ^6-[1,4]thiazepin-5-yl)-4-fluoro-phenyl]-amide], it took 260 nM to reach half-maximal inhibition on BACE1 (IC50). In the case of `C[C@@]1(c2cc(NC(=O)c3ccc(Cl)cn3)ccc2F)CCSCC(N)=N1` [Example 1, 5-Chloro-pyridine-2-carboxylic acid [3-((S)-3-amino-5-methyl-2,5,6,7-tetrahydro-[1,4]thiazepin-5-yl)-4-fluoro-phenyl]-amide], the half-inhibitory concentration (IC50) is 6.3 nM against BACE1 and 167 nM against BACE2. For the compound `CC1(C)C(N)=N[C@](C)(c2cc(NC(=O)c3ccc(F)cn3)ccc2F)CCS1(=O)=O` [Example 10, 5-Fluoro-pyridine-2-carboxylic acid [3-((S)-3-amino-2,2,5-trimethyl-1,1-dioxo-2,5,6,7-tetrahydro-1H-1λ^6-[1,4]thiazepin-5-yl)-4-fluoro-phenyl]-amide], the IC50 was found to be 62 nM against BACE1 and 181 nM at BACE2.
